Assay [1] deals with T1, AcP2X (Aplysia P2X receptor) (Aplysia californica, UniProt E2QDA7).
T1 construct: full-length CDS AcP2X (GenBank NP_001191558.1) expressed in Xenopus oocytes
T1 sequence (E2QDA7 1-434): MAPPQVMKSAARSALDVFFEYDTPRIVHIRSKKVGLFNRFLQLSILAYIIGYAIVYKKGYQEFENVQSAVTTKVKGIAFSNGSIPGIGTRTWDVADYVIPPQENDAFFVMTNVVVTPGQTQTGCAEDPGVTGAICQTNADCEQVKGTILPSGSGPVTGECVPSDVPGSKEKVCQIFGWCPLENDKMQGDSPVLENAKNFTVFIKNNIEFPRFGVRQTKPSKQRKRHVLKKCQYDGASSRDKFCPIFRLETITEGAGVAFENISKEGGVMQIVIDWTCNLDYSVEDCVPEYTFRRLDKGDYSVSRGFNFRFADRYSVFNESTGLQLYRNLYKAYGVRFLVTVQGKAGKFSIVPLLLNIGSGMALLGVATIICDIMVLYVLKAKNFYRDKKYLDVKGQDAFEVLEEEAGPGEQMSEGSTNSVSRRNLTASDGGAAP
The assay can be described thus: two-electrode voltage clamp in Xenopus oocytes, agonist dose-response (fast component; slow component EC50 […]). The assay is classed as cell-based.

In assay [2] the target is T1, AcP2X (Aplysia P2X receptor). Put plainly: two-electrode voltage clamp in Xenopus oocytes, inhibition of current evoked by […] ATP (fast component). The assay is classed as cell-based. (In general: Two-electrode voltage clamp is typically applied to oocytes expressing channels or transporters.)

Molecules are shown by their SMILES.

Our source for the EC50 and IC50 values is PMC7943599, “ATP signaling in the integrative neural center of Aplysia californica” (Scientific Reports, 2021).

The EC50 is the midpoint of the concentration-response curve. For the compound `Nc1ncnc2c1ncn2[C@@H]1O[C@H](COP(=O)(O)OP(=O)(O)OP(=O)(O)O)[C@@H](O)[C@H]1O` [ATP], in assay [1], the response was half-maximal at 306 µM (EC50).

The term IC50 denotes the concentration needed to halve the response being measured. Higher therefore signals lower potency. In assay [2], `Cc1nc(/N=N/c2ccc(S(=O)(=O)O)cc2S(=O)(=O)O)c(COP(=O)(O)O)c(C=O)c1O` [PPADS] gave an IC50 of 211 µM.
